Measured values from the supplement of paper PMC10307832.

Experiments:
Assay in all cases: relative viability (nuclei count vs DMSO), 5 days (fraction); higher = more cells survive
Vandetanib + Pemetrexed = compound: COc1cc2/c(=N/c3ccc(Br)cc3F)nc[nH]c2cc1OCC1CCN(C)CC1 [Vandetanib] + Nc1nc2[nH]cc(CCc3ccc(C(=O)N[C@@H](CCC(=O)O)C(=O)O)cc3)c2c(=O)[nH]1 [Pemetrexed] (partner 0.2 µM)
Outline: (§1)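 Relative viability equals treated-well nuclei counts divided by vehicle-well nuclei counts. Counts came from 4× images of lung cancer cell lines grown in 1536-well plates for 5 days after pin-tool dosing on the day after seeding. Dosing used one drug alone or a fixed anchor-drug dose plus five library-drug doses (not always all listed) in √10 steps, and values are medians of duplicate plates.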

Vandetanib + Linsitinib = compound: COc1cc2/c(=N/c3ccc(Br)cc3F)nc[nH]c2cc1OCC1CCN(C)CC1 [Vandetanib] + C[C@]1(O)C[C@@H](c2nc(-c3ccc4ccc(-c5ccccc5)nc4c3)c3c(N)nccn32)C1 [Linsitinib] (partner 1 µM)
Outline: as §1

CUDC-101 + Dasatinib = compound: C#Cc1cccc(Nc2ncnc3cc(OC)c(OCCCCCCC(=O)NO)cc23)c1 [CUDC-101] + Cc1nc(Nc2ncc(C(=O)Nc3c(C)cccc3Cl)s2)cc(N2CCN(CCO)CC2)n1 [Dasatinib] (partner 0.075 µM)
Outline: as §1

Vandetanib + Dasatinib = compound: COc1cc2/c(=N/c3ccc(Br)cc3F)nc[nH]c2cc1OCC1CCN(C)CC1 [Vandetanib] + Cc1nc(Nc2ncc(C(=O)Nc3c(C)cccc3Cl)s2)cc(N2CCN(CCO)CC2)n1 [Dasatinib] (partner 0.075 µM)
Outline: as §1

Row | Cell Line | relative viability (Vandetanib + Pemetrexed; first compound 0.02 µM) | relative viability (Vandetanib + Pemetrexed; first compound 0.06325 µM) | relative viability (Vandetanib + Pemetrexed; first compound 0.2 µM) | relative viability (Vandetanib + Pemetrexed; first compound 0.6325 µM) | relative viability (Vandetanib + Pemetrexed; first compound 2 µM) | relative viability (Vandetanib + Linsitinib; first compound 0.02 µM) | relative viability (Vandetanib + Linsitinib; first compound 0.06325 µM) | relative viability (Vandetanib + Linsitinib; first compound 0.2 µM) | relative viability (Vandetanib + Linsitinib; first compound 0.6325 µM) | relative viability (Vandetanib + Linsitinib; first compound 2 µM) | relative viability (CUDC-101 + Dasatinib; first compound 0.01 µM) | relative viability (CUDC-101 + Dasatinib; first compound 0.03162 µM) | relative viability (CUDC-101 + Dasatinib; first compound 0.1 µM) | relative viability (CUDC-101 + Dasatinib; first compound 0.3162 µM) | relative viability (CUDC-101 + Dasatinib; first compound 1 µM) | relative viability (Vandetanib + Dasatinib; first compound 0.02 µM) | relative viability (Vandetanib + Dasatinib; first compound 0.06325 µM) | relative viability (Vandetanib + Dasatinib; first compound 0.2 µM) | relative viability (Vandetanib + Dasatinib; first compound 0.6325 µM) | relative viability (Vandetanib + Dasatinib; first compound 2 µM)
1 | CAL-12T | 1.14 | 1.2 | 1.32 | 1.18 | 1.17 | 0.874 | 0.774 | 0.923 | 0.781 | 0.647 | 0.72 | 0.372 | 0.346 | 0.514 | 0.318 | 0.426 | 0.407 | 0.387 | 0.29 | 0.32
2 | NCI-H2085 | 1.02 | 0.786 | 0.776 | 0.765 | 0.767 | 1.01 | 0.837 | 0.855 | 0.945 | 0.793 | 0.205 | 0.274 | 0.221 | 0.196 | 0.215 | 0.226 | 0.236 | 0.2 | 0.279 | 0.244
3 | LCLC-97TM1 | 0.18 | 0.184 | 0.166 | 0.181 | 0.181 | 0.197 | 0.171 | 0.171 | 0.171 | 0.136 | 0.821 | 0.804 | 0.864 | 0.855 | 0.596 | 0.801 | 0.848 | 0.807 | 0.865 | 0.786
4 | NCI-H596 | 0.476 | 0.565 | 0.427 | 0.52 | 0.469 | 1.04 | 0.942 | 1.11 | 0.956 | 0.972 | 0.666 | 0.603 | 0.601 | 0.604 | 0.588 | 0.498 | 0.659 | 0.646 | 0.585 | 0.596
5 | NCI-H2228 | 0.284 | 0.337 | 0.337 | 0.343 | 0.292 | 0.589 | 0.54 |  | 0.707 | 0.585 | 0.542 | 0.543 | 0.536 | 0.52 | 0.4 | 0.464 | 0.478 | 0.503 | 0.463 | 0.481
6 | PC-14 | 0.133 | 0.115 | 0.123 | 0.179 | 0.165 | 0.988 | 0.911 | 1.03 | 0.617 | 0.249 | 0.292 | 0.232 | 0.0804 | 0.0597 | 0.0289 | 0.246 | 0.136 | 0.0576 | 0.0422 | 0.0429
7 | H3255 | 0.566 | 0.482 | 0.49 | 0.444 | 0.357 | 1.1 | 0.9 | 0.949 | 0.654 | 0.181 | 0.429 | 0.373 |  | 0.298 | 0.171 | 0.364 | 0.358 | 0.325 | 0.252 | 0.264
8 | NCI-H441 | 0.252 | 0.269 | 0.27 | 0.263 | 0.263 | 0.597 | 0.538 | 0.498 | 0.592 | 0.472 | 0.691 | 0.523 | 0.683 | 0.646 | 0.678 | 0.552 | 0.54 | 0.617 | 0.598 | 0.629
9 | LK-2 | 0.259 | 0.228 | 0.284 | 0.276 | 0.245 | 1.08 | 0.513 | 0.909 | 0.9 | 0.319 | 0.298 | 0.389 | 0.25 | 0.284 | 0.157 | 0.261 | 0.24 | 0.295 | 0.239 | 0.221
10 | SW 1573 | 0.899 | 0.841 |  | 0.909 | 0.887 | 0.832 | 0.777 | 0.749 | 0.741 | 0.794 | 0.62 | 0.764 | 0.517 | 0.498 | 0.358 | 0.449 | 0.577 | 0.598 | 0.441 | 0.674
11 | LU99A | 0.172 | 0.191 | 0.197 | 0.21 | 0.187 | 0.487 | 0.529 | 0.599 | 0.522 | 0.55 | 0.596 | 0.508 | 0.507 | 0.64 | 0.432 | 0.427 | 0.521 | 0.387 | 0.416 | 0.636
12 | NCI-H322M | 0.579 | 0.615 | 0.641 | 0.604 | 0.51 | 0.832 | 0.841 | 0.924 | 0.846 | 0.894 | 0.28 | 0.243 | 0.224 | 0.236 | 0.276 | 0.23 | 0.25 | 0.24 | 0.223 | 0.252
13 | COR-L23 | 0.179 | 0.197 | 0.223 | 0.21 | 0.187 | 0.757 | 0.688 | 0.131 | 0.919 | 0.955 | 0.578 | 0.485 | 0.477 | 0.499 | 0.177 | 0.485 | 0.438 | 0.462 | 0.446 | 0.564
14 | NCI-H1563 | 0.75 | 0.732 | 0.755 | 0.678 | 0.755 | 1.24 | 1.06 | 1.18 | 1.19 | 1.11 | 0.439 | 0.465 | 0.448 | 0.488 | 0.429 | 0.44 | 0.443 | 0.462 | 0.472 | 0.454
15 | NCI-H1793 | 1.02 | 0.779 | 0.772 | 0.711 | 0.744 | 0.87 | 0.74 | 0.819 | 0.897 | 0.587 | 0.393 | 0.371 | 0.342 | 0.415 | 0.371 | 0.448 | 0.353 | 0.387 | 0.381 | 0.391
16 | HARA | 0.246 | 0.239 | 0.243 | 0.203 | 0.213 | 1.03 | 0.749 | 1.04 | 0.985 | 0.989 | 0.246 | 0.311 | 0.271 | 0.282 | 0.229 | 0.305 | 0.264 | 0.239 | 0.237 | 0.303
